≈ marks a conversion by molar mass, not a printed value. Like-named read-outs stand apart in the source and are kept apart here.
Legend:
in vivo = conditions: Sprague-Dawley, rat
[1] = test system: Pseudomonas aeruginosa PA111, ATCC 27853; experiment: MIC assay, PA111; assay type: cell-based; conditions: ATCC27853, Table 9, read-out: MIC P. aeruginosa ATCC 27853
[2] = test system: Escherichia coli EC107, ATCC 25922; experiment: MIC assay, EC107; assay type: cell-based
[3] = test system: Enterococcus faecalis EF159, tetracycline-resistant, tet(M); experiment: MIC assay, EF159; assay type: cell-based
[4] = test system: E. coli DH10B(pBAD-tetK), expressing tet(K); experiment: MIC against recombinant E. coli expressing tet(K); assay type: cell-based; conditions: for MIC: Escherichia coli
Description: (§1) Constructs were transformed into E. coli DH10B for expression. Recombinant strains were pre-induced under optimized conditions with L-arabinose prior to use as inocula in CLSI standardized MIC assays.

[5] = test system: S. aureus ATCC 13709 (Smith); experiment: Mouse systemic infection model, S. aureus septicemia; conditions: survival after 48 hours
[6] = test system: Staphylococcus aureus SA161, HA-MRSA, tetracycline-resistant, tet(M); experiment: MIC assay, SA161; assay type: cell-based
[7] = Pharmacokinetic analysis in Sprague-Dawley rats; conditions: IV, single dose 1 mg/kg, mean
[8] = test system: E. coli DH10B(pBAD-tetM), expressing tet(M); experiment: MIC against recombinant E. coli expressing tet(M); assay type: cell-based; conditions: for MIC: Escherichia coli
Description: as §1

[9] = test system: tet(K) strains of S. aureus; experiment: MIC, CLSI methodology, recent clinical isolates (Example 21); assay type: cell-based; conditions: Staphylococcus aureus, read-out: MIC against tet(K) strains of S. aureus
Experimental: (§2) The assays were run as follows.
(§3) The antibacterial activities of Compounds MIC values were determined according to CLSI methodology. Recent clinical isolates were obtained from Eurofins-Medinet. Antibiotics were obtained from standard commercial sources.

[10] = test system: tet(M) strains of S. aureus; experiment: as above; assay type: cell-based; conditions: Staphylococcus aureus, read-out: MIC against tet(M) strains of S. aureus
Experimental: as §2, §3

[11] = test system: tet(M) strains of S. pneumoniae; experiment: as above; assay type: cell-based; conditions: Streptococcus pneumoniae, read-out: MIC against tet(M) strains of S. pneumoniae
Experimental: as §2, §3

[12] = test system: tet(M) and tet(S) strains of E. faecalis; experiment: as above; assay type: cell-based; conditions: Enterococcus faecalis, read-out: MIC against tet(M) and tet(S) strains of E. faecalis
Experimental: as §2, §3

[13] = test system: Staphylococcus aureus SA101, ATCC 29213, MSSA; experiment: MIC assay, SA101; assay type: cell-based
[14] = test system: Klebsiella pneumoniae KP109, ATCC 13883; experiment: MIC assay, KP109; assay type: cell-based; conditions: ATCC13883, Table 9, read-out: MIC Klebsiella pneum ATCC 13883
[15] = test system: S. aureus strains collected from various geographical sources; experiment: MIC50 and MIC90 analysis (Example 22)
Experimental: (§5) Frozen bacterial strains were thawed and subcultured onto Mueller Hinton Broth (MHB) or other appropriate media (Streptococcus requires blood and Haemophilus requires hemin and NAD). Following incubation overnight, the strains were subcultured onto Mueller Hinton Agar and again incubated overnight. […] Isolated colonies were selected to prepare a starting inoculum equivalent to a 0.5 McFarland standard. […] Antibiotics (stored frozen, thawed and used within 3 hours of thawing) and compounds were further diluted to the desired working concentrations.
(§6) The assays were run as follows. Fifty μL of MHB was added to wells 2-12 of a 96-well plate. One hundred μL of appropriately diluted antibiotic or compound was added to well 1. Fifty μL of antibiotics or compound was removed from well 1 and added to well 2 and the contents of well 2 mixed by pipetting up and down five times. Fifty μL of the mixture in well 2 was removed and added to well 3 and mixed as above. Serial dilutions were continued in the same manner through well 12. Fifty μL was removed from well 12 so that all contained 50 μL. Fifty μL of the working inoculum was then added to all test wells. A growth control well was prepared by adding 50 μL of working inoculum and 50 μL of MHB to an empty well. The plates were then incubated at 37° C. overnight, removed from the incubator and each well was read on a plate reading mirror. The lowest concentration (MIC) of test compound that inhibited the growth of the bacteria was recorded.
(§7) MIC, MIC50 and MIC90 values were determined according to CLSI methodology. S. pneumoniae and H. influenzae isolates were obtained from Eurofins-Medinet and are recent clinical isolates. S. aureus strains were collected from various geographical sources.

[16] = test system: S. pneumoniae isolates (Eurofins-Medinet, recent clinical isolates); experiment: MIC50 and MIC90 analysis (Example 22)
Experimental: as §5, §6, §7

[17] = test system: Acinetobacter baumannii AB110, ATCC 19606; experiment: MIC assay, AB110; assay type: cell-based; conditions: ATCC19606, Table 9, read-out: MIC A.baum AB110
[18] = test system: Enterococcus faecalis EF103, ATCC 29212; experiment: MIC assay, EF103; assay type: cell-based
E. coli ATCC 25922 = experiment: Mouse systemic infection model, E. coli septicemia; conditions: survival after 48 hours
[19] = test system: Streptococcus pneumoniae SP106, ATCC 49619; experiment: MIC assay, SP106; assay type: cell-based
[20] = test system: Streptococcus pneumoniae SP160, tetracycline-resistant, tet(M); experiment: MIC assay, SP160; assay type: cell-based
[21] = test system: S. aureus clinical isolates; experiment: MIC50, MIC90 and MIC range, panel of clinical isolates (Example 20); assay type: cell-based; conditions: MRSA, 30 isolates; in µg/mL
Experimental: as §2
(§4) Both values, as well as the MIC range (the lowest and highest MIC value observed for a collection of organisms), were determined for the isolates listed in Table 3.

[22] = test system: E. faecalis clinical isolates; experiment: as above; assay type: cell-based; conditions: 24 isolates, in µg/mL
Experimental: as §2, §4

[23] = test system: S. pneumoniae clinical isolates; experiment: as above; assay type: cell-based; conditions: 19 isolates, in µg/mL
Experimental: as §2, §4

Work on `CN(C)CC(C)(C)CNc1nc(Cl)c2c(c1O)C(=O)C1=C(O)[C@]3(O)C(=O)C(C(N)=O)=C(O)[C@@H](N(C)C)[C@@H]3C[C@@H]1C2` [Compound 151] yielded an AUC(0-t) (in vivo; iv, 1 mg/kg) of 4870 ng·h/mL, a Cmax (in vivo; iv, 1 mg/kg) of 2400 ng/mL and a Tmax (in vivo; iv, 1 mg/kg) of 13.2 min. For the same compound, the bioavailability (in vivo; oral, 10 mg/kg) was 0.8%, the AUC(0-t) (in vivo; po, 10 mg/kg) was 395 ng·h/mL and the Cmax (in vivo; po, 10 mg/kg) was 69.8 ng/mL. For the same compound, the Tmax (in vivo; po, 10 mg/kg) was 49.8 min, the half-life (in vivo; po, 10 mg/kg) was 313 min and the MIC [1] was 32 µg/mL (≈ 55.4 µM). The MIC ([2]; ATCC25922, Table 8, read-out: MIC E. coli ATCC 25922) was 0.5 µg/mL (≈ 0.865 µM), the MIC ([2]; ATCC25922, Table 9, read-out: MIC E. coli ATCC 25922) was 0.5 µg/mL (≈ 0.865 µM) and the MIC ([2]; ATCC25922, Table 12, read-out: MIC E. coli ATCC 25922) was 0.25 µg/mL (≈ 0.432 µM). The MIC ([3]; Table 8, read-out: MIC E. faecalis tetM) was 2 µg/mL (≈ 3.46 µM), the MIC ([3]; Table 9, read-out: MIC E. faecalis EF159 (tet)M) was 2 µg/mL (≈ 3.46 µM) and the MIC ([4]; read-out: MIC, TetK Induced) was 1 µg/mL. The MIC ([4]; read-out: MIC, Uninduced) was 1 µg/mL, the “MIC ratio, TetK induced to uninduced” value ([4]; ratio of TetK induced to uninduced MIC) was 1 and the “Effect of expression of (tet)K on activity” value ([4]; result in words) was “unaffected”. For the same compound, the “PD50 in the mouse septicemia model against S. aureus” value ([5]; CD-1 mice, IP infection, intravenous treatment one hour post-challenge) was 0.36 mg/kg, the PD50 ([5]; mouse septicemia, S. aureus ATCC 13709, intravenous treatment one hour post-challenge) was 0.36 mg/kg and the MIC ([6]; Table 8, read-out: MIC S. aureus MRSA, tetM) was 2 µg/mL (≈ 3.46 µM). For the same compound, the MIC ([6]; Table 9, read-out: MIC MRSA (tet)M SA161) was 2 µg/mL (≈ 3.46 µM), the Clobs [7] was 3.3723 mL/min/kg and the Vzobs [7] was 1.25614 L/kg. The half-life [7] was 258 min, the MIC ([8]; read-out: MIC, TetM induced) was 1 µg/mL and the MIC ([8]; read-out: MIC, Uninduced) was 0.5 µg/mL. For the same compound, the “Ratio (TetM induced / Uninduced)” value ([8]; ratio of MICs) was 2, the “Effect of expression of (tet)M on activity” value ([8]; result in words) was “minimally affected” and the MIC [9] was ≤ 1 µg/mL. For the same compound, the MIC [10] was ≤ 8 µg/mL, the MIC [11] was ≤ 0.25 µg/mL and the MIC [12] was ≤ 4 µg/mL. It also gave an MIC ([13]; Table 8, read-out: MIC S. aureus ATCC 29213) of 0.25 µg/mL (≈ 0.432 µM), an MIC ([13]; Table 9, read-out: MIC S. aureus ATCC 29213) of 0.25 µg/mL (≈ 0.432 µM) and an MIC [14] of 2 µg/mL (≈ 3.46 µM). For the same compound, the MIC Range ([15]; S. aureus (n = 20)) was 0.063 to 0.5 µg/mL, the MIC50 ([15]; Staphylococcus aureus) was 0.13 µg/mL (≈ 0.225 µM) and the MIC90 ([15]; Staphylococcus aureus) was 0.25 µg/mL (≈ 0.432 µM). The MIC Range ([16]; S. pneumoniae (n = 20)) was “≦0.016-0.063 μg/ml”, the MIC50 ([16]; Streptococcus pneumoniae) was ≤ 0.016 µg/mL and the MIC90 ([16]; Streptococcus pneumoniae) was 0.063 µg/mL (≈ 0.109 µM). The MIC [17] was 2 µg/mL (≈ 3.46 µM), the MIC ([18]; Enterococcus faecalis, ATCC29212, Table 8, read-out: MIC E. faecalis ATCC 29212) was 0.25 µg/mL (≈ 0.432 µM) and the “MIC E. faecalis ATCC 29212” value ([18]; Table 9) was 0.25 µg/mL (≈ 0.432 µM). The “PD50 in the mouse septicemia model against E. coli” value (E. coli ATCC 25922; CD-1 mice, IP infection, treatment one hour post-challenge) was 17.0 mg/kg, the PD50 (E. coli ATCC 25922; mouse septicemia, E. coli ATCC 25922, treatment one hour post-challenge) was 17.0 mg/kg and the MIC ([19]; ATCC49619, Table 8, read-out: MIC S. pneumoniae ATCC 49619) was 0.063 µg/mL (≈ 0.109 µM). For the same compound, the MIC ([19]; ATCC49619, Table 9, read-out: MIC S. pneum ATCC 49619) was 0.016 µg/mL (≈ 0.0277 µM), the MIC ([20]; Table 8, read-out: MIC S. pneumoniae tetM) was 0.5 µg/mL (≈ 0.865 µM) and the MIC ([20]; Table 9, read-out: MIC S. pneum SP160 (tet)M) was 0.125 µg/mL (≈ 0.216 µM). For the same compound, the “MIC Range” value [21] was 0.5-8, the “MIC Range” value [22] was 0.031-4 and the “MIC Range” value [23] was “<=0.016-0.25”.

From patent US8828988B2 (Tetraphase Pharmaceuticals, Inc., priority 2009, dated 2014)
